Assay results from patent US20240066136A1, “MODIFIED PROTEINS AND PROTEIN DEGRADERS” (Cullgen (Shanghai), Inc., priority 2020, published 2024).
pKd: −log10 of the molar value.

How the values were obtained:
P300 [1] = molecular target: T1, P300 (Homo sapiens (Human), UniProt Q09472); assay: Immunoblot of P300 protein in LNCaP cells after compound treatment; type: cell-based
Description: (§1) Experiments were performed to see if heterobifunctional compounds as described herein could degrade target proteins. Specific exemplary heterobifunctional compounds were characterized in LNCaP and Calu-1 cells. LNCaP cells that express P300/CBP proteins were treated with heterobifunctional compounds disclosed herein (D-2, D-13, or D-7) at indicated concentrations for 8 hours. Cells were collected, lysed and subject to immunoblotting using an antibody specific to P300 or CBP proteins. Vinculin was included as the loading control. DMSO treatment was used as the negative control. […] In addition, LNCaP cells were treated with 500 nM of D-2, or D-13 for indicated period of time. Subsequently, changes in P300 and CBP protein levels were measured by immunoblotting.

CBP = CBP (Homo sapiens (Human), UniProt Q92793); assay: Immunoblot of CBP protein in LNCaP cells after compound treatment; type: cell-based
Description: as §1

P300 [2] = molecular target: T1, P300; assay: Immunoblot of P300 in Calu-1 cells with co-administered proteasome, neddylation or DDB1-ligand competitor; type: cell-based
Description: The heterobifunctional compound-mediated p300 and CBP degradation was dependent on the ubiquitin-proteasome system and cullin E3 ligase. […] The binding with DDB1 also played a role in the heterobifunctional compounds ability to induce degradation of P300 and CBP proteins.

LNCaP cells = assay: LNCaP cell viability (CellTiter-Glo); type: cell-based; settings: three days
Description: LNCaP cells seeded in 96-well plates were treated with 10 μM GNE-781 or selected heterobifunctional compounds, following a 12-point 3-fold serial dilution. Three days after treatment, cell viability was determined using the CellTiter-Glo Kit (Promega). Cell viability was normalized to the mean values of 3 replicates of untreated cells. Dose-dependent response was analyzed following the least-squares non-linear regression method using the GraphPad Prism software.

Human DDB1 = Human DDB1 (Homo sapiens (Human), UniProt Q16531); assay: Surface plasmon resonance (SPR) binding assay to immobilized His-DDB1; settings: SPR, DDB1 binding moieties with linkers and/or target protein binding moiety; read-out: Binding (Kd)
In short: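 Baculovirus-expressed His-DDB1 (High5 cells) amine-coupled to 11,000–13,000 RU on a CM5 chip; compounds injected in multi-cycle format without regeneration at 25° C in HBS-EP pH 7.4 (120 s association/dissociation). Double-referenced, solvent-corrected data fit to steady-state affinity model for KD.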

CDK4 = CDK4 (Homo sapiens (Human), UniProt P11802); assay: Immunoblot of CDK4 protein in Calu-1 cells; type: cell-based; settings: 1 μM, 16 hours after administration
Description: (§2) Additional heterobifunctional compounds were designed and tested for their ability to target and degrade another two target proteins, CDK4 and CDK6. Calu-1 cells that express CDK4/6 proteins were treated with heterobifunctional compounds disclosed herein (D-44 to D-49) at indicated concentrations for 16 hours. Cells were collected, lysed and subject to immunoblotting using an antibody specific to CDK4, CDK6 or phosphorylated Rb proteins. Tubulin was included as the loading control. DMSO treatment was used as the negative control. […] In addition, Calu-1 cells were treated with 1 μM D-48 or D-49 for an indicated period of time. Subsequently, changes in CDK4 and CDK6 protein levels were measured by immunoblotting. […] These experiments highlight the ability of DDB1 binder derived heterobifunctional compounds to degrade multiple different target proteins, including but not limited to epigenetic target proteins, such as CBP and p300, and kinases, such as CDK4 and CDK6.

CDK6 = CDK6 (Homo sapiens (Human), UniProt Q00534); assay: Immunoblot of CDK6 protein in Calu-1 cells; type: cell-based; settings: 1 μM, 16 hours after administration
Description: as §2

[3] = indicated concentrations, 8 hours, immunoblot

Sequence of Human DDB1 (Q16531 whole entry): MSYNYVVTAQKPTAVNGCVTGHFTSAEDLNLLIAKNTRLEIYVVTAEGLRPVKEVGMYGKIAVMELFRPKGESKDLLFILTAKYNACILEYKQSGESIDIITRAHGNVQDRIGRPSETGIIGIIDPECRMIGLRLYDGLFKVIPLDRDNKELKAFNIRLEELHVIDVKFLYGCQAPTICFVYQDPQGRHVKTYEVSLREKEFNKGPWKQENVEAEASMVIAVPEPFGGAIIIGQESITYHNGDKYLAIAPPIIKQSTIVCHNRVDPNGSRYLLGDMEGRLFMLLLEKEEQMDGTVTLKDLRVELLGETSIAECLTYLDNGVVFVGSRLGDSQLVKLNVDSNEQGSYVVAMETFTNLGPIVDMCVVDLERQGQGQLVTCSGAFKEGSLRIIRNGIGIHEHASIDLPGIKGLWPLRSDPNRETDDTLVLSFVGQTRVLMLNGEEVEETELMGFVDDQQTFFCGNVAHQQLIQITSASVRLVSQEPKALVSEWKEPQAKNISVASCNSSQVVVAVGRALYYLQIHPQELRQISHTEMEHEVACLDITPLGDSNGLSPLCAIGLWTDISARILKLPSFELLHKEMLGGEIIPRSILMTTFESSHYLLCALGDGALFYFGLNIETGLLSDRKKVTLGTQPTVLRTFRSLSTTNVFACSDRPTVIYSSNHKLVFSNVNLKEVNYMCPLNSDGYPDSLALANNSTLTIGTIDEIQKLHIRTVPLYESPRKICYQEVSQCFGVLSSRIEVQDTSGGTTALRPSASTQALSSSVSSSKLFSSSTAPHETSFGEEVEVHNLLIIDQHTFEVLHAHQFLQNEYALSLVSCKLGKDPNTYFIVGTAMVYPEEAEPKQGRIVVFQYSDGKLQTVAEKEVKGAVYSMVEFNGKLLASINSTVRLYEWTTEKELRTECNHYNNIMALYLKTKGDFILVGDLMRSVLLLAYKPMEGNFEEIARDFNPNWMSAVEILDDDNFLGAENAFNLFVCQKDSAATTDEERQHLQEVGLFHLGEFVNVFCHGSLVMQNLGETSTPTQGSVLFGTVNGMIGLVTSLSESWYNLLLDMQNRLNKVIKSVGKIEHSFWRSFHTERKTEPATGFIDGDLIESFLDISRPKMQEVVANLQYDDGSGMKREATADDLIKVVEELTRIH
T1 sequence (Q09472 whole entry): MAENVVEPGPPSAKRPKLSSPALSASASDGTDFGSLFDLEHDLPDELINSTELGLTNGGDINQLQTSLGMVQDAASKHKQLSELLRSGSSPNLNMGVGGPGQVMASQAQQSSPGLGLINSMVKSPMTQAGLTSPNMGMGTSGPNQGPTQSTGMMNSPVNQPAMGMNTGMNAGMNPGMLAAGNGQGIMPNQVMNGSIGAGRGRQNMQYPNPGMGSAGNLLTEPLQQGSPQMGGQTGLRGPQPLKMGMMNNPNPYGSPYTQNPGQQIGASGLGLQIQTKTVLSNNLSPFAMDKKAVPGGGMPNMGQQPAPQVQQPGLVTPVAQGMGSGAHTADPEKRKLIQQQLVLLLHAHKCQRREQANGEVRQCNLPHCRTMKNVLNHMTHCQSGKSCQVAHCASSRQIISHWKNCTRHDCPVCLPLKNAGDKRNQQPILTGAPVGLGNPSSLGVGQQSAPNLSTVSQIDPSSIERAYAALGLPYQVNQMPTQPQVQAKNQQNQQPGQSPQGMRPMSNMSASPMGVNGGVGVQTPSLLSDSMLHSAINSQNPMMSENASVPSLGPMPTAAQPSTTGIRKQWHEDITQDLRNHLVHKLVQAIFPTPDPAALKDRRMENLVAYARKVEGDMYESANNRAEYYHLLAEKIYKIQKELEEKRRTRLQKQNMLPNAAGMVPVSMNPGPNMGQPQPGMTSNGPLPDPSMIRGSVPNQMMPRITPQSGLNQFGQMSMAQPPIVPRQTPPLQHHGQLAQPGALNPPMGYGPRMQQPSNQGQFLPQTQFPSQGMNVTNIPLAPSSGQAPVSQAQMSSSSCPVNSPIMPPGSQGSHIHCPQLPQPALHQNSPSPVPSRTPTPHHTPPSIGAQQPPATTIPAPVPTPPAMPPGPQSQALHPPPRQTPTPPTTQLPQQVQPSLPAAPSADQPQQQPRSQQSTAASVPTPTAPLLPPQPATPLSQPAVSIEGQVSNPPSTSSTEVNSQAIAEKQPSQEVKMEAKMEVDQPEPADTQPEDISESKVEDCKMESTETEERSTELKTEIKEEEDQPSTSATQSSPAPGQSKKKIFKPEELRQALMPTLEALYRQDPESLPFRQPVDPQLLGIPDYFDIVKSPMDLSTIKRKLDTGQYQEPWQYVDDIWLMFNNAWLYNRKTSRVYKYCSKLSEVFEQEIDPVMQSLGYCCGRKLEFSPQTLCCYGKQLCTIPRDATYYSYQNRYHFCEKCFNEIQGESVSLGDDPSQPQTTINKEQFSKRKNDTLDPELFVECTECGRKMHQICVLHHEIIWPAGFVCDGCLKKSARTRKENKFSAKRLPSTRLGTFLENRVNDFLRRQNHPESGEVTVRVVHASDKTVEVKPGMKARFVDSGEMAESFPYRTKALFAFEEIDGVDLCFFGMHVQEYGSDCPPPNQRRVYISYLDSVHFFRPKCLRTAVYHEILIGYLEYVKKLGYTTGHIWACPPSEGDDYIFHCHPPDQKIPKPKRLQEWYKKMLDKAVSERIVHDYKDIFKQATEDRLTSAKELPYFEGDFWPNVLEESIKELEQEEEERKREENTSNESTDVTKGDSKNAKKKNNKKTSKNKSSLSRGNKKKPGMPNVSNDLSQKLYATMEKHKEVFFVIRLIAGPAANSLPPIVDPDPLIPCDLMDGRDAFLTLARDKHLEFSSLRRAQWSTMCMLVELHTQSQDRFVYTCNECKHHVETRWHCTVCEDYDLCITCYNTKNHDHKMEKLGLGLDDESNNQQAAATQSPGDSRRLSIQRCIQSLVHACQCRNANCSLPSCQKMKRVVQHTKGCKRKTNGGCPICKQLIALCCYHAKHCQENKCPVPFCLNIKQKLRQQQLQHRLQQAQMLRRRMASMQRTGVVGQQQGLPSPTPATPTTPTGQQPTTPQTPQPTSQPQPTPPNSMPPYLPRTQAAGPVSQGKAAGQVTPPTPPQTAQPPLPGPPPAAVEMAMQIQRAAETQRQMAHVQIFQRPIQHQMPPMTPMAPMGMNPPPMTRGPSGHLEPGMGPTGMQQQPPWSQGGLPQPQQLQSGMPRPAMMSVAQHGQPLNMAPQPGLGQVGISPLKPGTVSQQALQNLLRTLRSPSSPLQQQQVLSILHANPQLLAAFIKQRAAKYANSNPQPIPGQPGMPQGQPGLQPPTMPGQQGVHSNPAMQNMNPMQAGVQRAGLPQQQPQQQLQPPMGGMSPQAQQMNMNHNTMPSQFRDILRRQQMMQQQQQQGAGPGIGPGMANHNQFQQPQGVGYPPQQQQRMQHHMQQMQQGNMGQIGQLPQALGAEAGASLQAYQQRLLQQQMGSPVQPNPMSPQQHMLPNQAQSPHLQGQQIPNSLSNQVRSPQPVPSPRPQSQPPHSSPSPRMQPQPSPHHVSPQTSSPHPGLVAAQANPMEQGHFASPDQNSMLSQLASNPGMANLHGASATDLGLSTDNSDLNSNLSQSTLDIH
Sequence of CDK6 (Q00534 whole entry): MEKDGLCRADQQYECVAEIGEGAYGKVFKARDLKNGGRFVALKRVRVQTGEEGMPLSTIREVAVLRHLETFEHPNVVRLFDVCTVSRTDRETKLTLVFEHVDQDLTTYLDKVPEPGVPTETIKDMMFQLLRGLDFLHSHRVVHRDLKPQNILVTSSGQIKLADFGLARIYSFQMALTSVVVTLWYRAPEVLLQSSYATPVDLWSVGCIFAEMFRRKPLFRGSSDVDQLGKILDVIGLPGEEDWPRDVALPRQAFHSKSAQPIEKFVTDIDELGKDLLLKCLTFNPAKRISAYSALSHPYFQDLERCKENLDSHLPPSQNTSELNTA
Sequence of CDK4 (P11802 whole entry): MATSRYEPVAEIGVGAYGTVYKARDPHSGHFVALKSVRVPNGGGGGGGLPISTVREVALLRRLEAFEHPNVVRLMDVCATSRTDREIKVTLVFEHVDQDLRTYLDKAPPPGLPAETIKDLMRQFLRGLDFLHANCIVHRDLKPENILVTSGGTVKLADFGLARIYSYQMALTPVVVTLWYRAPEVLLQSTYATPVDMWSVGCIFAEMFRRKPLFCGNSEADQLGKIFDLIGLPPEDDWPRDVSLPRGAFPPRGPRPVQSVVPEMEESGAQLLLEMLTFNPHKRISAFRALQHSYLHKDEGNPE

| Compound | time at which significant degradation of P300 was detected (P300 [1]; 500 nM, time course) [h] | P300 protein levels (P300 [1]; [3]) | time at which significant degradation of CBP was detected (CBP; 500 nM, time course) [h] | CBP protein levels (CBP; [3]) | compound-induced degradation under co-administration of MG-132 or bortezomib (BTZ), or MLN4924 (P300 [2]) | viability of LNCaP cells (LNCaP cells; 10 μM top, 12-point 3-fold serial dilution) | inhibitory effects on the growth of LNCaP cells compared to GNE-781 (LNCaP cells) | pKd (Human DDB1) | degradation of CDK4 (CDK4) | degradation of CDK6 (CDK6) |
| --- | --- | --- | --- | --- | --- | --- | --- | --- | --- | --- |
| CC(=O)Nc1cc(NCCCCNC(=O)CN2CCC(n3nc(N4CCCc5cc(-c6cnn(C)c6)c(C(F)F)cc54)c4c3CCN(C(C)=O)C4)CC2)ccc1C(=O)Nc1nc(C)c([N+](=O)[O-])s1 [D-2, 2-Acetamido-4-((4-(2-(4-(5-acetyl-3-(7-(difluoromethyl)-6-(1-methyl-1H-pyrazol-4-yl)-3,4-dihydroquinolin-1 (2H)-yl)-4,5,6,7-tetrahydro-1H-pyrazolo[4,3-c]pyridin-1-yl)piperidin-1-yl)acetamido)butyl)amino)-N-(4-methyl-5-nitrothiazol-2-yl)benzamide] | 2 to 4 | significantly decreased in a concentration-dependent manner | 2 to 4 | significantly decreased in a concentration-dependent manner | compromised | dose-dependently suppressed viability of LNCaP cells | more potent inhibitory effects | 4.00 to 4.70 | – | – |
| CC(=O)Nc1cc(NCCOCCOCCOCCOCCOCCNC(=O)CN2CCN(c3ccc(Nc4ncc5c(C)c(C(C)=O)c(=O)n(C6CCCC6)c5n4)nc3)CC2)ccc1C(=O)Nc1nc(C)c([N+](=O)[O-])s1 [D-48, 2-Acetamido-4-((1-(4-(6-((6-acetyl-8-cyclopentyl-5-methyl-7-oxo-7,8-dihydropyrido[2,3-d]pyrimidin-2-yl)amino)pyridin-3-yl)piperazin-1-yl)-2-oxo-6,9,12,15,18-pentaoxa-3-azaicosan-20-yl)amino)-N-(4-methyl-5-nitrothiazol-2-yl)benzamide] | – | – | – | – | – | – | – | > 4.70 | Significant degradation | Significant degradation |
| CC(=O)Nc1cc(NCCOCCOCCOCCOCCOCCOCCNC(=O)CN2CCN(c3ccc(Nc4ncc5c(C)c(C(C)=O)c(=O)n(C6CCCC6)c5n4)nc3)CC2)ccc1C(=O)Nc1nc(C)c([N+](=O)[O-])s1 [D-49, 2-Acetamido-4-((1-(4-(6-((6-acetyl-8-cyclopentyl-5-methyl-7-oxo-7,8-dihydropyrido[2,3-d]pyrimidin-2-yl)amino)pyridin-3-yl)piperazin-1-yl)-2-oxo-6,9,12,15,18,21-hexaoxa-3-azatricosan-23-yl)amino)-N-(4-methyl-5-nitrothiazol-2-yl)benzamide] | – | – | – | – | – | – | – | > 4.70 | Significant degradation | Significant degradation |
